One may read the IC50 as the point on the concentration scale where inhibition reaches its midpoint. The inhibition is the percentage by which the read-out fell short of the control.

From patent US20170204092A1, “4,5-DIHYDROISOXAZOLE DERIVATIVES AS NAMPT INHIBITORS” (AURIGENE DISCOVERY TECHNOLOGIES LIMITED, priority 2014, published 2017) come the findings set out here.

Molecules are shown by their SMILES. Like-named read-outs stand apart in the source and are kept apart here.

Series [1] has as its target T1, recombinant NAMPT wild type protein (Homo sapiens, UniProt P43490).
T1 construct: made in house; host or cells: E. coli
Put plainly: NAMPT fluorescence assay. It counts as biochemical. The following applies: 50 ng NAMPT, 2 μM Nam, 10 point dose response; read-out: Fluorescence assay IC50 in range. Here is the method:
The enzymatic assay was standardized using in-house recombinant NAMPT wild type protein from E. coli expression & NAM (Cat #47865-U) as a substrate. The product NMN formed after enzymatic reaction was derivatized to a fluorescent derivative through sequentially reacting with acetophenone/KOH and formic acid. The derivatized fluorescent NMN derivative was detected at 382 nm excitation wavelength and a 445 nm emission wavelength. […] The fluorescence was measured (Excitation at 382 nm & Emission at 445 nm) using Victor^3 V fluorimeter. The data is calculated using the RFU values. The final concentration of DMSO was 2% in the assay. Each individual IC50 was determined using 10 point dose response curve generated by GraphPad Prism software Version 4 (San Diego, Calif., USA) using nonlinear regression curve fit for sigmoidal dose response (variable slope).

A further series has as its system MiaPaCa-2 cells. Put plainly: Cytotoxicity assay in MiaPaCa-2 (XTT, 72 h). It counts as cell-based. The following applies: for inhibition at 1 µM / inhibition at 10 µM / Cell cytotoxicity assay (% Inhibition at 1 μM) / Cell cytotoxicity assay (% Inhibition at 10 μM): DMSO control = 0% inhibition; for inhibition at 1 µM: read-out: Cell cytotoxicity assay (% Inhibition at 1 μM); for inhibition at 10 µM: read-out: Cell cytotoxicity assay (% Inhibition at 10 μM); for IC50: XTT, read-out: Cell cytotoxicity assay IC50 in range. How it is done:
MiaPaCa-2 Cells (ATCC) were seeded in 96 well plates (Costar clear flat bottom) at a density of 3000 cells/well and allowed to settle overnight. Test compounds were dissolved in dimethyl sulphoxide (DMSO-Sigma Aldrich, D2650) and incubated with MiaPaCa-2 cells for 72 h. Post 72 h, 50 μl XTT (1 mg/mL; Invitrogen, X 6493) and PMS ([…]; Sigma Aldrich, P9625) reagents were added to the cells in 100 μl of cDMEM (Sigma Aldrich-D5648)+10% FBS (Hyclone-5430088-03)+1×Pen Strep (Sigma Aldrich-P0781). After 1 hour incubation with XTT and PMS absorbance was monitored with Spectramax M3 (Molecular Device). Percentage inhibition of proliferation at 10 μM and 1 μM concentrations was calculated by considering DMSO control as 0% inhibition. IC50 values were plotted using Graph pad prism software (Graph pad Inc, La Jola, Calif., USA).
(Tetrazolium assays rely on reduction of a dye to a coloured formazan, in cell work by metabolically active cells.)

T1 sequence (P43490 whole entry): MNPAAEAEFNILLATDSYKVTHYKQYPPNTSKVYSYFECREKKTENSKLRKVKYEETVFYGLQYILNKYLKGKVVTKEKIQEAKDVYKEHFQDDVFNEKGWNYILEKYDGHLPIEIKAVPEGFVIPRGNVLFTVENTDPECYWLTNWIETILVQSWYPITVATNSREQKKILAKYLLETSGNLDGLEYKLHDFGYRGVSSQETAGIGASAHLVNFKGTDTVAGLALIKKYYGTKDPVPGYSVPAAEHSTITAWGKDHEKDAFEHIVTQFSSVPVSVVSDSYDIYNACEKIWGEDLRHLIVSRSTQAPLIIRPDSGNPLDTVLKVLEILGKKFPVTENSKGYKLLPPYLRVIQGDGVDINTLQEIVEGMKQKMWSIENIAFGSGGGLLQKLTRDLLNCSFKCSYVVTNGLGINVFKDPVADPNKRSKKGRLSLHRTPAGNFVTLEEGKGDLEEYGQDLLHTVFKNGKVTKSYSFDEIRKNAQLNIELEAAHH

Take `O=C(NCC1=NOC(COc2cc(Cl)cnc2-c2cccnc2)C1)c1ccc2nccn2c1` (racemic) [Example 13, N-((5-(((5-chloro-[2,3′-bipyridin]-3-yl)oxy)methyl)-4,5-dihydroisoxazol-3-yl)methyl)imidazo[1,2-a]pyridine-6-carboxamide]: the IC50 in series [1] was less than 10 nM. Moreover, in the series with MiaPaCa-2 cells (Homo sapiens, MIA PaCa-2, 72 h), the inhibition at 1 µM was 95%, the inhibition at 10 µM came to 95% and the IC50 was in the range of 50 to 250 nM.
In the case of `O=C(NCC1=NOC(COc2cccnc2-c2ccc(Cl)nc2)C1)c1ccc2nccn2c1` (racemic) [Example 8, N-((5-(((6′-chloro-[2,3′-bipyridin]-3-yl)oxy)methyl)-4,5-dihydroisoxazol-3-yl)methyl)imidazo[1,2-a]pyridine-6-carboxamide], the IC50 in series [1] is 10 to 25 nM; in the series on MiaPaCa-2 cells (Homo sapiens, MIA PaCa-2, 72 h), less than 50 nM.
In the case of `O=C(NCC1=NOC(COc2cccnc2-c2cccnc2)C1)c1ccc2nccn2c1` (racemic) [Example 7, N-((5-(([2,3′-bipyridin]-3-yloxy)methyl)-4,5-dihydroisoxazol-3-yl)methyl)-imidazo[1,2-a]pyridine-6-carboxamide], the half-inhibitory concentration (IC50) in series [1] was 10 to 25 nM. In addition, in the series on MiaPaCa-2 cells (Homo sapiens, MIA PaCa-2, 72 h), the inhibition at 1 µM is 90%, the inhibition at 10 µM amounted to 90% and the IC50 lay within 50 to 250 nM.
As for `Cc1ccc(OCC2CC(CNC(=O)c3ccc4nccn4c3)=NO2)c(-c2ccc(F)nc2)n1` (single isomer, unassigned) [Example 12a, N-((5-(((6′-fluoro-6-methyl-[2,3′-bipyridin]-3-yl)oxy)methyl)-4,5-dihydroisoxazol-3-yl)methyl)imidazo[1,2-a]pyridine-6-carboxamide], the IC50 in series [1] was 10 to 25 nM; in the series with MiaPaCa-2 cells, more than 250 nM. The “Cell cytotoxicity assay (% Inhibition at 1 μM)” value in the series with MiaPaCa-2 cells stood at 45%. The inhibition at 10 µM with MiaPaCa-2 cells (Homo sapiens, MIA PaCa-2, 72 h) turned out to be 96%.
For `O=C(NCC1=NOC(COc2cc(F)cnc2-c2ccc(F)nc2)C1)c1ccc2nccn2c1` (racemic) [Example 9, N-((5-(((5,6′-difluoro-[2,3′-bipyridin]-3-yl)oxy)methyl)-4,5-dihydroisoxazol-3-yl)methyl)imidazo[1,2-a]pyridine-6-carboxamide], the IC50 in series [1] lay in the range of 10 to 25 nM. Also, in the series on MiaPaCa-2 cells (Homo sapiens, MIA PaCa-2, 72 h), the inhibition at 1 µM came out at 88%, the inhibition at 10 µM came to 89% and the IC50 was less than 50 nM.
Taken in the same sequence, the figures for `O=C(NCC1=NOC(COc2cccnc2-c2ccc(F)nc2)C1)Nc1ccnnc1` (racemic) [Example 18, 1-((5-(((6′-fluoro-[2,3′-bipyridin]-3-yl)oxy)methyl)-4,5-dihydroisoxazol-3-yl)methyl)-3-(pyridazin-4-yl)urea] were more than 25 nM, 90%, 89% and 50 to 250 nM.
With `Cc1cnc(-c2ccc(F)nc2)c(OCC2CC(CNC(=O)c3ccc4nccn4c3)=NO2)c1` (single isomer, unassigned) [Example 11a, N-((5-(((6′-fluoro-5-methyl-[2,3′-bipyridin]-3-yl)oxy)methyl)-4,5-dihydroisoxazol-3-yl)methyl)imidazo[1,2-a]pyridine-6-carboxamide], the IC50 in series [1] was 10 to 25 nM; in the series with MiaPaCa-2 cells, more than 250 nM. Moreover, in the series with MiaPaCa-2 cells (Homo sapiens, MIA PaCa-2, 72 h), the inhibition at 1 µM was determined as 88%. In addition, the inhibition at 10 µM with MiaPaCa-2 cells (Homo sapiens, MIA PaCa-2, 72 h) worked out at 100%.
On to `Cc1cnc(-c2ccc(F)nc2)c(OCC2CC(CNC(=O)c3ccc4nccn4c3)=NO2)c1` (racemic) [Example 11, N-((5-(((6′-fluoro-5-methyl-[2,3′-bipyridin]-3-yl)oxy)methyl)-4,5-dihydroisoxazol-3-yl)methyl)imidazo[1,2-a]pyridine-6-carboxamide], for which the IC50 in series [1] was 10 to 25 nM. In the series on MiaPaCa-2 cells (Homo sapiens, MIA PaCa-2, 72 h), the inhibition at 1 µM came to 96%, the inhibition at 10 µM came to 95% and the IC50 was less than 50 nM.
For the compound `O=C(NCC1=NOC(COc2cccnc2-c2cccnc2)C1)c1ccc2nccn2c1` (single isomer, unassigned) [Example 7a, N-((5-(([2,3′-bipyridin]-3-yloxy)methyl)-4,5-dihydroisoxazol-3-yl)methyl)-imidazo[1,2-a]pyridine-6-carboxamide], the values for the IC50 (in series [1]; in the series with MiaPaCa-2 cells) were less than 10 nM and less than 50 nM, respectively.
For `Cc1cc(NC(=O)NCC2=NOC(COc3cccnc3-c3cnn(C)c3)C2)ccn1` (racemic) [Example 19, 1-((5-(((2-(1-methyl-1H-pyrazol-4-yl)pyridin-3-yl)oxy)methyl)-4,5-dihydroisoxazol-3-yl)methyl)-3-(2-methylpyridin-4-yl)urea], in series [1], the IC50 was 10 to 25 nM. In the series on MiaPaCa-2 cells (Homo sapiens, MIA PaCa-2, 72 h), the inhibition at 1 µM was determined as 17%, the inhibition at 10 µM worked out at 82% and the IC50 was more than 250 nM.
For `O=C(NCC1=NOC(COc2cc(Cl)cnc2-c2cccnc2)C1)c1ccc2nccn2c1` (single isomer, unassigned) [Example 13b, N-((5-(((5-chloro-[2,3′-bipyridin]-3-yl)oxy)methyl)-4,5-dihydroisoxazol-3-yl)methyl)imidazo[1,2-a]pyridine-6-carboxamide], the concentration for half-maximal inhibition (IC50) in series [1] fell in the range of 10 to 25 nM. Further, in the series on MiaPaCa-2 cells, the “Cell cytotoxicity assay (% Inhibition at 1 μM)” value came out at 100%, the “Cell cytotoxicity assay (% Inhibition at 10 μM)” value came to 100% and the IC50 is less than 50 nM.
As for `O=C(NCC1=NOC(COc2cccnc2-c2ccc(Cl)nc2)C1)c1ccc2nccn2c1` (single isomer, unassigned) [Example 8b, N-((5-(((6′-chloro-[2,3′-bipyridin]-3-yl)oxy)methyl)-4,5-dihydroisoxazol-3-yl)methyl)imidazo[1,2-a]pyridine-6-carboxamide], in series [1], the IC50 is more than 25 nM. In the series on MiaPaCa-2 cells, the “Cell cytotoxicity assay (% Inhibition at 1 μM)” value amounted to 92%, the “Cell cytotoxicity assay (% Inhibition at 10 μM)” value came to 94% and the IC50 was in the range of 50 to 250 nM.
Consider `O=C(NCC1=NOC(COc2cc(F)cnc2-c2ccc(F)nc2)C1)c1ccc2nccn2c1` (single isomer, unassigned) [Example 9b, N-((5-(((5,6′-difluoro-[2,3′-bipyridin]-3-yl)oxy)methyl)-4,5-dihydroisoxazol-3-yl)methyl)imidazo[1,2-a]pyridine-6-carboxamide], for which the IC50 in series [1] was in the range of 10 to 25 nM. Further, in the series with MiaPaCa-2 cells, the “Cell cytotoxicity assay (% Inhibition at 1 μM)” value came to 95%, the “Cell cytotoxicity assay (% Inhibition at 10 μM)” value was 95% and the IC50 is less than 50 nM.
On to `O=C(NCC1=NOC(COc2cccnc2-c2ccc(F)nc2)C1)c1ccc2nccn2c1` (racemic) [Example 4, N-((5-(((6′-fluoro-[2,3′-bipyridin]-3-yl)oxy)methyl)-4,5-dihydroisoxazol-3-yl)methyl)imidazo[1,2-a]pyridine-6-carboxamide], for which the IC50 in series [1] is less than 10 nM. Further, in the series on MiaPaCa-2 cells (Homo sapiens, MIA PaCa-2, 72 h), the inhibition at 1 µM is 96%, the inhibition at 10 µM was 96% and the 50% inhibitory concentration (IC50) was less than 50 nM.
As for `Cn1cc(-c2ncccc2OCC2CC(CNC(=O)c3ccc4nccn4c3)=NO2)cn1` (racemic) [Example 5, N-((5-(((2-(1-methyl-1H-pyrazol-4-yl)pyridin-3-yl)oxy)methyl)-4,5-dihydroisoxazol-3-yl)methyl)imidazo[1,2-a]pyridine-6-carboxamide], the IC50 in series [1] is less than 10 nM. In the series on MiaPaCa-2 cells (Homo sapiens, MIA PaCa-2, 72 h), the inhibition at 1 µM stood at 47%, the inhibition at 10 µM stood at 95% and the IC50 was in the range of 50 to 250 nM.
On to `O=C(NCC1=NOC(COc2cc(Cl)cnc2-c2cccnc2)C1)c1ccc2nccn2c1` (single isomer, unassigned) [Example 13a, N-((5-(((5-chloro-[2,3′-bipyridin]-3-yl)oxy)methyl)-4,5-dihydroisoxazol-3-yl)methyl)imidazo[1,2-a]pyridine-6-carboxamide], for which the IC50 in series [1] was more than 25 nM. For the same compound, in the series on MiaPaCa-2 cells, the “Cell cytotoxicity assay (% Inhibition at 1 μM)” value is listed as 20% and the IC50 was more than 250 nM. Besides, in the series with MiaPaCa-2 cells (Homo sapiens, MIA PaCa-2, 72 h), the inhibition at 10 µM came out at 93%.
The matching figures for `O=C(NCC1=NOC(COc2cc(F)cnc2-c2ccc(F)nc2)C1)c1ccc2nccn2c1` (single isomer, unassigned) [Example 9a, N-((5-(((5,6′-difluoro-[2,3′-bipyridin]-3-yl)oxy)methyl)-4,5-dihydroisoxazol-3-yl)methyl)imidazo[1,2-a]pyridine-6-carboxamide]: less than 10 nM, 12%, more than 250 nM and 90%.
